Results reported in ChEMBL document CHEMBL4699592, “Nature-Inspired (di)Azine-Bridged Bisindole Alkaloids with Potent Antibacterial In Vitro and In Vivo Efficacy against Methicillin-Resistant Staphylococcus aureus” (J Med Chem, 2020).
Converted amounts (≈) assume the structure as drawn. The source made the active and inactive calls. The calls are words filed in the database; no cut-off is given here.

Legend:
[1] = Selectivity index, ratio of IC50 for cytotoxicity against human MRC5 cells to MIC90 for antibacterial activity against […] Staphylococcus aureus ATCC 700699; format: toxicity, cell-based; details: read-out: Selectivity Index
Staphylococcus aureus [2] = assay: Bactericidal activity against […] Staphylococcus aureus ATCC 700699 assessed as reduction in bacterial viability at 5 fold MIC incubated for 6 hrs by time kill assay relative to control; format: functional
[3] = system: Mycobacterium tuberculosis; assay: Antibacterial activity against Mycobacterium tuberculosis H37Rv at 0.78 to 100 uM after 5 days by resazurin dye based fluorescence assay; format: functional, organism-based; details: dose microM 0.78-100, time 5.0 day
[4] = Selectivity index, ratio of IC50 for cytotoxicity against human THP-1 cells to MIC90 for antibacterial activity against […] Staphylococcus aureus ATCC 700699; format: toxicity, cell-based; details: read-out: Selectivity Index
Staphylococcus aureus [5] = assay: Antibacterial activity against […] Staphylococcus aureus ATCC 700699 after 24 hrs by broth microdilution method; format: functional
Staphylococcus aureus [6] = assay: Bactericidal activity against […] Staphylococcus aureus ATCC 700699 assessed as colony forming units at 5 fold MIC measured after 24 hrs by time kill assay; format: functional
[7] = Solubility of compound in pH 7.7 PBS buffer; format: physicochemical
THP-1 = assay: Cytotoxicity against human THP-1 cells assessed as reduction in cell viability at >=12.5 uM measured after 48 hrs by resazurin dye based fluorescence assay; details: thp-1, 48 h
[8] = Stability of compound in pH 7.7 DMSO:PBS solution at 0.19 uM measured after 6 hrs; format: physicochemical; details: buffer, pH 7.7, 6 h
Acinetobacter baumannii [9] = assay: Antibacterial activity against Acinetobacter baumannii ATCC BAA-1605 at 0.78 to 100 uM after 24 hrs by broth microdilution method; format: functional, organism-based; details: dose microM 0.78-100, time 24.0 hrs
Staphylococcus aureus [10] = assay: Bactericidal activity against […] Staphylococcus aureus ATCC 700699 assessed as colony forming unit at 5 fold MIC incubated for 6 hrs followed by compound washout and subsequent compound addition by time kill assay; format: functional
MRC5 = assay: Cytotoxicity against human MRC5 cells assessed as reduction in cell viability at >=12.5 uM measured after 48 hrs by resazurin dye based fluorescence assay; details: mrc5, 48 h
Staphylococcus aureus [11] = assay: Antibacterial activity against vancomycin-sensitive Staphylococcus aureus T144 infected in Balb/c mouse peritonitis-sepsis model assessed as increase in survival at 20 mg/kg, ip measured for 48 hrs; format: functional, organism-based
Staphylococcus aureus [12] = assay: Antibacterial activity against vancomycin-sensitive Staphylococcus aureus T144 infected in Balb/c mouse assessed as reduction in bacterial burden at 20 mg/kg applied topically measured after 12 days by colony counting method; format: functional, organism-based; details: time 12.0 day
Staphylococcus aureus [13] = assay: Antibacterial activity against vancomycin-sensitive Staphylococcus aureus T144 infected in Balb/c mouse assessed as increase in wound healing at 20 mg/kg applied topically measured daily for 12 days by microscopic analysis; format: functional, organism-based; details: time 12.0 day
Pseudomonas aeruginosa [14] = assay: Synergistic antibacterial activity against Pseudomonas aeruginosa ATCC 27853 assessed as FIC after 24 hrs in presence of colistin by checkerboard assay relative to test compound MIC; format: functional
Pseudomonas aeruginosa [15] = assay: Synergistic antibacterial activity against Pseudomonas aeruginosa ATCC 27853 assessed as FICI after 24 hrs in presence of colistin by checkerboard assay; format: functional
Escherichia coli [16] = assay: Synergistic antimicrobial activity against Escherichia coli ATCC BAA 2469 assessed as FIC after 24 hrs in presence of colistin by checkerboard assay relative to colistin; format: functional
Pseudomonas aeruginosa [17] = assay: Antibacterial activity against Pseudomonas aeruginosa ATCC 27853 measured after 24 hrs by broth microdilution method; format: functional
Staphylococcus aureus [18] = assay: Inhibition of Staphylococcus aureus ATCC 700699 N-terminal His6-tagged pyruvate kinase expressed in Escherichia coli NiCo21(DE3) at 12.5 uM using phosphoenolpyruvate as substrate measured for 5 mins by LDH-coupled assay
Klebsiella pneumoniae [19] = assay: Antibacterial activity against Klebsiella pneumoniae ATCC 700603 after 24 hrs in presence of colistin by checkerboard assay relative to test compound MIC; format: functional
Acinetobacter baumannii [20] = assay: Antibacterial activity against Acinetobacter baumannii ATCC BAA-1605 after 24 hrs by broth microdilution method; format: functional
Enterococcus faecalis [21] = assay: Antibacterial activity against Enterococcus faecalis ATCC 29212 at 0.78 to 100 uM after 24 hrs by broth microdilution method; format: functional, organism-based; details: dose microM 0.78-100, time 24.0 hrs
Staphylococcus aureus [22] = assay: Antibacterial activity against vancomycin-sensitive Staphylococcus aureus T144 infected in Balb/c mouse peritonitis-sepsis model assessed as increase in survival at 5 mg/kg, ip measured for 48 hrs; format: functional, organism-based
[23] = Cytotoxicity against human CLS-54 cells assessed as reduction in cell viability at >12.5 uM measured after 48 hrs by resazurin dye based fluorescence assay; details: cls-54, 48 h
Staphylococcus aureus [24] = assay: Antibacterial activity against methicillin-resistant Staphylococcus aureus USA300 LAC at 0.15 to 25 uM incubated for 24 hrs under low pyruvate containing medium by resazurin dye based fluorescence assay; format: functional, organism-based; details: dose microM 0.15-25, time 24.0 hrs
Acinetobacter baumannii [25] = assay: Synergistic antibacterial activity against Acinetobacter baumannii ATCC BAA-1605 assessed as FIC after 24 hrs in presence of colistin by checkerboard assay relative to test compound MIC; format: functional
[26] = molecular target: Pyruvate kinase PKM (Oryctolagus cuniculus) (UniProt P11974); assay: Inhibition of rabbit muscle pyruvate kinase up to 12.5 uM using phosphoenolpyruvate as substrate measured for 5 mins by LDH-coupled assay; details: dose microM <=12.5, time 5.0 min
Chain of Pyruvate kinase PKM (Oryctolagus cuniculus) (P11974 whole entry): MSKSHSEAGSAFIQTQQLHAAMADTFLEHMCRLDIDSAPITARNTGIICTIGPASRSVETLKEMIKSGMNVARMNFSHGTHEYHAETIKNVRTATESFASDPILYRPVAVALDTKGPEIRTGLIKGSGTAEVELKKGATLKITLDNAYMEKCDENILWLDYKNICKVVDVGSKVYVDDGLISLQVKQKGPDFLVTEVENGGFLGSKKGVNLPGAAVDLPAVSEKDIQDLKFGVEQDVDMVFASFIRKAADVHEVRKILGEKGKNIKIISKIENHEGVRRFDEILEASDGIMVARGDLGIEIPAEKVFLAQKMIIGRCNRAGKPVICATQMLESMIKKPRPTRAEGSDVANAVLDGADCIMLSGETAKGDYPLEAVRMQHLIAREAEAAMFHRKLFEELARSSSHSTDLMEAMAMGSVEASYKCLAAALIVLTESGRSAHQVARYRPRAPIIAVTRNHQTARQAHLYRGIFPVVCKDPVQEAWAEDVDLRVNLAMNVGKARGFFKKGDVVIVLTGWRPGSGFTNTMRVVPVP

Enterococcus faecalis [27] = assay: Antibacterial activity against Enterococcus faecalis ATCC 51299 at 0.78 to 100 uM after 24 hrs by broth microdilution method; format: functional, organism-based; details: dose microM 0.78-100, time 24.0 hrs
Staphylococcus aureus [28] = assay: Antibacterial activity against methicillin-resistant pyruvate kinase deficient Staphylococcus aureus USA300 LAC at 0.15 to 25 uM incubated for 24 hrs under low pyruvate containing medium by resazurin dye based fluorescence assay; format: functional, organism-based; details: dose microM 0.15-25, time 24.0 hrs
Enterococcus faecium [29] = assay: Antibacterial activity against vancomycin-resistant Enterococcus faecium ATCC 35667 at 0.78 to 100 uM after 24 hrs by broth microdilution method; format: functional, organism-based; details: dose microM 0.78-100, time 24.0 hrs
Escherichia coli [30] = assay: Synergistic antimicrobial activity against Escherichia coli ATCC BAA 2469 assessed as FICI after 24 hrs in presence of colistin by checkerboard assay; format: functional
Acinetobacter baumannii [31] = assay: Synergistic antibacterial activity against Acinetobacter baumannii ATCC BAA-1605 assessed as FIC after 24 hrs in presence of colistin by checkerboard assay relative to colistin; format: functional
Staphylococcus aureus [32] = assay: Antibacterial activity against methicillin susceptible Staphylococcus aureus ATCC 25923 at 0.78 to 100 uM after 24 hrs by broth microdilution method; format: functional, organism-based; details: dose microM 0.78-100, time 24.0 hrs
[33] = Solubility of compound in pH 7.7 DMSO:PBS solution; format: physicochemical; details: buffer
Staphylococcus aureus [34] = assay: Antibacterial activity against vancomycin-sensitive Staphylococcus aureus T144 infected in Balb/c mouse assessed as increase in wound healing at 5 mg/kg applied topically measured daily for 12 days by microscopic analysis; format: functional, organism-based; details: time 12.0 day
HepG2 = assay: Cytotoxicity against human HepG2 cells assessed as reduction in cell viability at >12.5 uM measured after 48 hrs by resazurin dye based fluorescence assay; details: hepg2, 48 h
HEK293 = assay: Cytotoxicity against HEK293 cells assessed as reduction in cell viability at >12.5 uM measured after 48 hrs by resazurin dye based fluorescence assay; details: human, hek293, 48 h
Klebsiella pneumoniae [35] = assay: Antibacterial activity against Klebsiella pneumoniae ATCC 700603 after 24 hrs by broth microdilution method; format: functional
Klebsiella pneumoniae [36] = assay: Synergistic antibacterial activity against Klebsiella pneumoniae ATCC 700603 assessed as FICI after 24 hrs in presence of colistin by checkerboard assay; format: functional
Pseudomonas aeruginosa [37] = assay: Synergistic antibacterial activity against Pseudomonas aeruginosa ATCC 27853 assessed as FIC after 24 hrs in presence of colistin by checkerboard assay relative to colistin; format: functional
Staphylococcus aureus [38] = assay: Antibacterial activity against […] Staphylococcus aureus ATCC 700699 assessed as ratio of MIC before and after 38 passages by broth microdilution method; format: functional
Klebsiella pneumoniae [39] = assay: Synergistic antibacterial activity against Klebsiella pneumoniae ATCC 700603 assessed as FIC after 24 hrs in presence of colistin by checkerboard assay relative to colistin; format: functional
Escherichia coli [40] = assay: Synergistic antimicrobial activity against Escherichia coli ATCC BAA 2469 assessed as FIC after 24 hrs in presence of colistin by checkerboard assay relative to test compound MIC; format: functional
Staphylococcus aureus [41] = assay: Antibacterial activity against methicillin-resistant Staphylococcus aureus USA300 LAC at 0.15 to 25 uM incubated for 24 hrs under low glucose medium by resazurin dye based fluorescence assay; format: functional, organism-based; details: dose microM 0.15-25, time 24.0 hrs
Staphylococcus aureus [42] = assay: Antibacterial activity against vancomycin-sensitive Staphylococcus aureus T144 infected in Balb/c mouse assessed as reduction in bacterial burden at 5 mg/kg applied topically measured after 12 days by colony counting method; format: functional, organism-based; details: time 12.0 day
Acinetobacter baumannii [43] = assay: Synergistic antibacterial activity against Acinetobacter baumannii ATCC BAA-1605 assessed as FICI after 24 hrs in presence of colistin by checkerboard assay; format: functional
Erythrocyte = assay: Hemolytic activity against sheep erythrocytes up to 100 uM measured after 1 hr; format: ADME, cell-based, Ovis aries
Escherichia coli [44] = assay: Antimicrobial activity against Escherichia coli ATCC BAA 2469 after 24 hrs by broth microdilution assay; format: functional
Escherichia coli [45] = assay: Antimicrobial activity against Escherichia coli ATCC BAA 2469 after 24 hrs in presence of colistin by checkerboard assay relative to test compound MIC; format: functional
Enterococcus faecium [46] = assay: Antibacterial activity against vancomycin-resistant Enterococcus faecium ATCC 700221 at 0.78 to 100 uM after 24 hrs by broth microdilution method; format: functional, organism-based; details: dose microM 0.78-100, time 24.0 hrs
Klebsiella pneumoniae [47] = assay: Synergistic antibacterial activity against Klebsiella pneumoniae ATCC 700603 assessed as FIC after 24 hrs in presence of colistin by checkerboard assay relative to test compound MIC; format: functional
Staphylococcus aureus [48] = assay: Antibacterial activity against methicillin susceptible Staphylococcus aureus ATCC 25923 after 24 hrs by broth microdilution method; format: functional

SMILES: Clc1ccc2[nH]cc(-c3cnc(-c4c[nH]c5ccc(Cl)cc45)cn3)c2c1
- selectivity ratio [1]: 32
- fold change (FC) (Staphylococcus aureus [2]): 100
- Activity [3]: inactive
- selectivity ratio [4]: 32
- MIC90 (Staphylococcus aureus [5]): 0.39 µM (≈ 0.148 µg/mL)
- Activity (Staphylococcus aureus [6]): 100 CFU/ml
- solubility [7]: Insoluble
- Activity (THP-1): Toxic
- Stabilty [8]: Stable
- Activity (Acinetobacter baumannii [9]): inactive
- Activity (Staphylococcus aureus [10]): 100 CFU/ml
- Activity (MRC5): Toxic

SMILES: CN[C@H](CC(C)C)C(=O)N[C@H]1C(=O)N[C@@H](CC(N)=O)C(=O)N[C@H]2C(=O)N[C@H]3C(=O)N[C@H](C(=O)N[C@H](C(=O)O)c4cc(O)cc(O)c4-c4cc3ccc4O)[C@H](O)c3ccc(c(Cl)c3)Oc3cc2cc(c3O[C@@H]2O[C@H](CO)[C@@H](O)[C@H](O)[C@H]2O[C@H]2C[C@](C)(N)[C@H](O)[C@H](C)O2)Oc2ccc(cc2Cl)[C@H]1O
- Activity (Staphylococcus aureus [11]): Active
- Activity (Staphylococcus aureus [12]): Active
- Activity (Staphylococcus aureus [13]): Active

SMILES: Clc1ccc2[nH]cc(-c3cnc(-c4c[nH]c5ccc(Cl)cc45)nc3)c2c1
- FIC (Pseudomonas aeruginosa [14]): <=0.0625
- fractional inhibitory concentration index (FICI) (Pseudomonas aeruginosa [15]): <=1.0625
- selectivity ratio [1]: 32
- FIC (Escherichia coli [16]): 0.064
- fold change (FC) (Staphylococcus aureus [2]): 10000
- MIC (Pseudomonas aeruginosa [17]): > 100 µM
- inhibition (Staphylococcus aureus [18]): inactive
- Ratio (Klebsiella pneumoniae [19]): 8
- MIC (Acinetobacter baumannii [20]): > 100 µM
- Activity (Enterococcus faecalis [21]): Active
- Activity (Staphylococcus aureus [22]): Active
- Activity [3]: Active
- Activity [23]: Toxic
- Activity (Staphylococcus aureus [24]): Active
- FIC (Acinetobacter baumannii [25]): <=0.0625
- inhibition [26]: inactive
- Activity (Enterococcus faecalis [27]): Active
- Activity (Staphylococcus aureus [28]): Active
- selectivity ratio [4]: 32
- Activity (Enterococcus faecium [29]): Active
- fractional inhibitory concentration index (FICI) (Escherichia coli [30]): <=0.0953
- FIC (Acinetobacter baumannii [31]): 0.25
- Activity (Staphylococcus aureus [32]): Active
- solubility [33]: Insoluble
- MIC90 (Staphylococcus aureus [5]): 0.39 µM (≈ 0.148 µg/mL)
- Activity (Staphylococcus aureus [6]): <10 CFU/ml
- solubility [7]: Insoluble
- Activity (Staphylococcus aureus [34]): Active
- Activity (HepG2): Toxic
- Activity (THP-1): Toxic
- Activity (HEK293): Toxic
- MIC (Klebsiella pneumoniae [35]): > 100 µM
- fractional inhibitory concentration index (FICI) (Klebsiella pneumoniae [36]): <=0.25
- FIC (Pseudomonas aeruginosa [37]): 1
- Ratio (Staphylococcus aureus [38]): 2
- FIC (Klebsiella pneumoniae [39]): 0.125
- FIC (Escherichia coli [40]): <=0.0313
- Activity (Staphylococcus aureus [41]): Active
- Activity (Acinetobacter baumannii [9]): Active
- Activity (Staphylococcus aureus [42]): Active
- fractional inhibitory concentration index (FICI) (Acinetobacter baumannii [43]): <=0.3125
- Activity (Erythrocyte): Non-Toxic
- MIC (Escherichia coli [44]): > 100 µM
- Ratio (Escherichia coli [45]): 32
- Activity (Enterococcus faecium [46]): Active
- FIC (Klebsiella pneumoniae [47]): <=0.125
- Activity (MRC5): Toxic

SMILES: Brc1cc2[nH]cc(-c3cnc(-c4c[nH]c5cc(Br)c(Br)cc45)cn3)c2cc1Br
- Activity [3]: inactive
- MIC (Staphylococcus aureus [48]): 1.56 µM (≈ 0.976 µg/mL)
- MIC90 (Staphylococcus aureus [5]): 1.56 µM (≈ 0.976 µg/mL)
- Activity (Acinetobacter baumannii [9]): inactive
